# Results from patent US20250057930A1, “ANAPLASTIC LYMPHOMA KINASE (ALK) CANCER VACCINES AND METHODS OF USE THEREOF” (The Children's Medical Center Corporation, priority 2022, published 2025).
# Ends that are not written are not given here.
# Assays:
# Format in all cases: in vivo, mouse
# [1] = system: Ad-EA mice (mEml4-Alk rearranged lung tumor); test: Lung tumor volume by MRI and survival in Ad-EA mice; details: crizotinib 40 mg/kg or lorlatinib 2 mg/kg, MRI
# Source text: EML4-ALK transgenic (Tg) mice, which express the human EML4-ALK (E13;A20, human variant 1) driven by the SP-C promoter (henceforth referred as hEML4-ALK Tg mice), and BALB/c mice infected intratracheally with adenovirus carrying the CRISPR/Cas9 system to induce in vivo the Eml4-Alk rearrangement (E14;A20, mouse variant 1) (henceforth referred as Ad-EA mice). […] In these models, magnetic resonance imaging (MRI) (FIG. 1B) allowed precise cohort stratification and tumor follow-up.
# Anatomical T2-weighted coronal images were acquired with a respiratory-triggered multislice fast spin echo RARE sequence (TR=4 s, TE=4.5 ms, Rare Factor (RF)=16, FOV=30 mm^2, Matrix=256×256, slices=16-20, slice thickness=1 mm, 2 averages, providing an in-plane spatial resolution of 117 μm) with a 7T MRI (Bruker Advance III, Ettlingen, Germany) scanner equipped with a quadrature 1H coil. Animals were anesthetized by intraperitoneal injection of a combination of ROMPUN® (Bayer, 5 mg/kg) and ZOLETIL 100® (Laboratoires Virbac, 20 mg/kg); breathing was monitored during acquisition of the MR images with a respiratory sensor (SA Instruments, Inc.). Tumor volumes and numbers of masses calculations were performed by manual segmentation (slice by slice contouring) with ITK-SNAP software (www.itksnap.org).
# Syngeneic mice models transplanted with tumor cells were treated intraperitoneally with 200 μg of anti-PD-1 and/or anti-CTLA-4 (clone 9D9, Bioxcell), on days 3, 6, and 9 post-tumor transplantation (3 injections/per mouse).
# [2] = system: ALK-specific CD8+ T cells; test: Vaccination of HLA B*07:02 transgenic mice, IFN-γ ELISPOT of splenocytes; details: short and long peptide groups pooled, of 12 mice
# Source text: Transgenic mice expressing the human HLA B*07:02 were vaccinated with different peptides containing the core epitopes […] (SEQ ID NO: 4) or […] (SEQ ID NO: 3): […] (SEQ ID NO: 4) (IVRshort), […] (SEQ ID NO: 1) (IVRlong), […] (SEQ ID NO: 3) (RPRshort), […] (SEQ ID NO: 2) (RPRlong). ALK-specific CD8+ T cells responses were detected in 12/12 (100%) mice vaccinated with either the IVRshort peptide or the IVRlong peptide and in 6/12 (50%) of mice vaccinated with either the PRPshort peptide or the RPRlong (FIG. 7D). Finally, ALK-specific CD8+ T cells responses were also detected in peripheral blood mononuclear cells (PBMCs) from 3/6 (50%) ALK+ NSCLC patients when stimulated with the […] (SEQ ID NO: 4) peptide but not with the […] (SEQ ID NO: 3) peptide (FIGS. 7E and 16B; Tables 6-7). Overall, four immunogenic ALK peptides in the context of the HLA A*02:01 and B*07:02 alleles were identified by mass spectrometry that can pave the way toward the design of a human ALK vaccine.
# The interferon-γ release enzyme-linked immune absorbent spot (ELISPOT) assay was performed using a commercial kit (Mouse IFN-γ ELISPOT, Mabtech, Stockholm, Sweden) according to the manufacturer's instructions. Briefly, the ELISPOT plate was prepared in sterile conditions and washed with sterile PBS (200 μL/well) for 5 times. Consecutively, the plate was conditioned with fresh DMEM medium (200 μL/well) contained 10% of the same fetal bovine serum used for the splenocytes suspension and incubated for 30 minutes at room temperature. After incubation, the medium was discarded and 2.5×10^5 splenocytes were plated in each well together with the appropriate stimuli. The plate was incubated over/night at 37° C. in humidified conditions with 5% C02. The day after, cells were discarded, and the plate was washed 5 times with PBS. Biotinylated detection anti-IFN-γ mAb (1 μg/mL) was added into the wells, followed by 2 hours of incubation at room temperature. […] All plates were evaluated by a computer assisted ELISPOT reader (CTL Immunospot analyzer, OH, USA).
# [3] = Toxicity of the ALK vaccine in HLA-A*02:01 and HLA-B*07:02 transgenic mice; details: for toxicity in vaccinated mice: HLA-A*02:01 (AMLDLLHVA) and HLA-B*07:02 (IVRCIGVSL) transgenic mice, CDN adjuvant; for CD8^+ T cells in the hypothalamus region / H&E and pan-HLA immunohistochemistry staining of the hypothalamus region / weight gain: mouse, in vivo
# Source text: Transgenic mice (HLA-A*02:01 and HLA-1B*07:02) were vaccinated as shown in the schematic in FIG. 18A with either […] (SEQ ID NO: 7) or […] (SEQ ID NO: 4) peptides, respectively, and cyclic dinucleotides (CDN) adjuvant. Weight measurements were taken at discrete time points. Next, splenocytes were isolated and assayed and brain tissue was sectioned and imaged (FIG. 18C).
Compound,tumor response at the end of treatment [1],mice with ALK-specific CD8+ T cells responses detected [2] [%],toxicity in vaccinated mice [3],CD8^+ T cells in the hypothalamus region [3],H&E and pan-HLA immunohistochemistry staining of the hypothalamus region [3],weight gain [3]
C[C@@H](Oc1cc(-c2cnn(C3CCNCC3)c2)cnc1N)c1c(Cl)ccc(F)c1Cl [crizotinib],stabilized tumors,–,–,–,–,–
FNHQNIVRCIGVSL [IVRlong],–,100,–,–,–,–
IVRCIGVSL,–,–,no detectable toxicity,Not a significant amount,healthy tissue,the same as the control mice
AMLDLLHVA,–,–,no detectable toxicity,Not a significant amount,healthy tissue,the same as the control mice
GGDLKSFLRETRPRPSQPSSLAM [RPRlong],–,50,–,–,–,–
